Measurements taken from patent US20260271925A1, “DYSREGULATION OF PLANKTONIC BACTERIAL METABOLISM” (Lixa Limited, priority 2023, published 2026).
In brackets after ≈: the same amount, converted by molar mass. Each block holds one compound with its values, some of them ahead of it.

Key:
S. aureus MSSA 278 = assay: Minimum inhibitory concentration by broth microdilution (Example 2); format: cell-based, Staphylococcus aureus; details: unit assumed
Protocol: (§1) Bacterial strains were maintained as suspensions in 20% (v/v) glycerol/Brain-Heart Infusion at −80° C.
(§2) A standard inoculum was prepared from broth culture.
(§3) The broth culture was diluted in broth to a turbidity equal to a 0.5 McFarland Standard using a spectrophotometer at a wavelength of 620 nm. The 0.5 McFarland Standard was further diluted 1:100 in broth to create the standard inoculum. 50 μl of this standard inoculum was dispensed into every well in the microtitre tray, except the negative controls, where 50 μl of broth was dispensed instead.
(§4) Next, a working concentration at two times the highest target concentration for every antimicrobial was created in broth from stock solutions. 100 μl of this working concentration was pipetted into the first well, and 50 μl of broth media into all other wells. 50 μl of the first well was pipetted out and serially diluted across all wells in the row until the final concentration in the range achieved. 50 μl from the final well was removed and discarded. This produced a concentration range where each well was double the target concentration. All agents were performed in duplicate.
(§5) 96 well trays were incubated at 37° C. for 18±2 hours.

S. aureus 510 (MRSA) = assay: as above; format: cell-based, Staphylococcus aureus; details: unit assumed
Protocol: as §1, §2, §3, §4, §5

K. pneumoniae WACC 790 = assay: Resazurin reduction for the evaluation of metabolic activity (Example 2, FIG. 8); format: cell-based, Klebsiella pneumoniae
Protocol: as §1
Aerobic respiration was measured in the presence or absence of D-Lactic acid and the presence or absence of companion antibiotics either following incubation and visual recording of the MIC, or in a separate study. For evaluation after completion of MIC determination, the entire volume of the MIC well (100 μl) was mixed by pipetting up and down, then transferred to the equivalent well of a fluorescence-absorbance suitable 96-well plate. Alternatively, cultures were pipetted together as above and incubated overnight at 37° C. in the absence of any antimicrobial compounds. […] After incubation regimes were completed for both procedures, resazurin reduction was evaluated by adding 10 μl of a 0.02% resazurin solution to every well, and incubating the plates with gentle shaking (40 rpm) for a further 90 minutes at 37° C. […]
Following incubation, the 96-well trays were read on a fluorescence-absorbance spectrophotometer, using an excitation frequency of 565 nm and emission frequency of 590 nm. […]

P. aeruginosa 001-11R = assay: Minimum inhibitory concentration by broth microdilution (Example 2); format: cell-based, Pseudomonas aeruginosa
Protocol: Bacterial strains were maintained as suspensions in 20% (v/v) glycerol/Brain-Heart Infusion at −80° C. For use, a loop-full of ice was scraped from the stock and streaked for single colonies on rich media containing 1.8% agar (for Pseudomonas aeruginosa or Klebsiella pneumoniae, Luria-Bertani medium; for Staphylococcus aureus or Streptococcus pneumoniae, Trypticase Soy agar) and incubated overnight at 37° C.
A standard inoculum was prepared from broth culture. 1 to 3 colonies from an overnight agar culture plate were transferred to 5 ml of broth media and incubated at 37° C. with shaking (200 rpm) until turbidity was greater than that of a 0.5 McFarland Standard (overnight). The following broth media were used: Cation-adjusted Mueller-Hinton broth (caMHB—all strains); Roswell Park Memorial Institute medium (RPMI 1640, phenol red-free—S. aureus); Trypticase Soya Broth (TSB—S. aureus, S. pneumoniae); Todd Hewitt Broth (THB—S. pneumoniae), M63 minimal medium, supplemented with 0.2% glucose (M63—K. pneumoniae).
as §3, §4, §5

[1] = test system: bioluminescent col^R E. coli Xen14; assay: Murine peritoneal-sepsis model, CD1 male mice challenged IP (Example 6); format: in vivo, Escherichia coli; details: for survival of infected mice: up to 72 h post-infection, 8 mice per group, Sodium D-Lactate 1000 mg/kg single oral dose, colistin 1 mg/kg IP at 0, 4, 8 and 12 h
Protocol: Bioluminescent col^R E. coli Xen14 was streaked onto a 5% sheep blood agar plate containing 30 μg/ml kanamycin and incubated overnight (o/n) at 37° C. in normal air. The plate was first checked on a Lumina XRMS Ill machine to ensure bioluminescence, then a loopful of the o/n growth was suspended into 10 mL Luria Bertani (LB) broth to A600 nm=0.05. The suspension was incubated at 37° C. for approx. 3 h until A600 nm=0.5 (equivalent to approx. 5×10^8 CFU/mL). The bacterial suspension was centrifuged at 4,000×g for 5 min, resuspended and washed twice in phosphate buffered saline (PBS, pH 7.2) resuspended again in PBS and then placed on wet ice and used for mouse infection within 10 min of preparation as described below.
Outbred Swiss male (CD1) mice, 6-7 weeks (approx. 26-33 g, 8 mice per group) obtained from the Laboratory Animal Services breeding facility of The University of Adelaide, were used in these experiments. Mice had access to food and water ad libitum. The Animal Ethics Committee of The University of Adelaide (approval number S-2022-044) reviewed and approved all animal experiments. The study was conducted in compliance with the Australian Code of Practice for the Care and Use of Animals for Scientific Purposes (8th Edition 2013) and the South Australian Animal Welfare Act 1985.
Each mouse was challenged intraperitoneally (IP) with approx. 1×10^8 CFU of the bioluminescent col^R E. coli Xen14 in 200 μL PBS containing 3% porcine stomach mucin type Ill (Sigma Aldrich) and subjected to bioluminescence imaging in both ventral and dorsal positions on the IVIS Lumina XRMS Series Ill system while under anaesthesia. […]
Aliquots of blood samples (approx. 50 μL) were taken by submandibular (facial vein) bleeding from individual mice in all groups at 4 h for bacterial enumeration. […] In all experiments, signals were collected from a defined region of interest and total flux intensities (photons/s) analysed using Living Image Software 4.7.3. Survival rates for the groups were recorded. […]

S. aureus MRSA 510 = assay: Minimum inhibitory concentration of metal salts by broth microdilution in Trypticase Soya broth (Example 4); format: cell-based, Staphylococcus aureus
Protocol: (§6) Bacterial strains were maintained as suspensions in 20% (v/v) glycerol/Brain-Heart Infusion at −80° C. For use, a loop-full of ice was scraped from the stock and streaked for single colonies on Trypticase Soya agar containing 1.8% agar and incubated overnight at 37° C.
(§7) A standard inoculum was prepared from broth culture. One to three colonies from an overnight agar culture plate were transferred to 5 ml of broth media and incubated at 37° C. with shaking (200 rpm) until turbidity was greater than that of a 0.5 McFarland Standard (overnight). All assays were performed in Trypticase Soya broth.
as §3
as §4, with “salt (in aqueous solution)” for “antimicrobial”
as §5

S. aureus 29213 = assay: as above; format: cell-based, Staphylococcus aureus
Protocol: as §6, §7, §3
as §4, with “salt (in aqueous solution)” for “antimicrobial”
as §5

[2] = test system: Pseudomonas aeruginosa clinical isolates from patients with cystic fibrosis; assay: Resazurin staining of planktonic cultures, metabolic activity (Example 1); format: cell-based; details: resorufin fluorescence; 24 clinical isolates; 24 h D-Lactic acid treatment
Protocol: Clinical isolates of Pseudomonas aeruginosa collected from patients with cystic fibrosis were phenotyped and stored as 50% glycerol stocks at −70° C.±2° C. Clinical isolates were thawed and streaked out on blood agar plates to grow at 37° C., 5% CO2 for 12-24 hours, or until isolated colonies were large enough to sustain further culturing could be selected. Isolated colonies were looped into 5 mL of LB broth and incubated overnight at 37° C., 5% CO2 with gentle shaking to achieve stationary phase (B0).
B0 cultures were diluted 1:1000 in Pseudomonas minimal medium (herein referred to as PMM) to achieve approximately […], then 150 μL of each diluted culture was transferred to wells of a 96 well mitrotitre tray and incubated overnight at 37° C., 5% CO2. D-Lactic acid was then applied by adding 50 μL of appropriately stock solutions diluted in PMM (or vehicle-only in the case of control wells) and incubating for a further 24 hours at 37° C., 5% CO2. 20 μL culture supernatant was then transferred to wells containing 180 μL fresh PMM, culture density determined by measuring the absorbance at 595 nm (using a ThermoFisher Multiskan FC plate reader). […]
Viable cells reduce the blue resazurin dye to the pink, fluorescent resorufin form. Following incubation fluorescence was quantified by excitation wavelength of 540 nm and an emission wavelength of 590 nm using Enspire microplate reader. […]

[3] = test system: P. aeruginosa strain WACC91; assay: Resazurin reduction of planktonic cultures in M63 (glucose), D- versus L-Lactic acid (Example 3); format: cell-based, Pseudomonas aeruginosa; details: resorufin fluorescence; compared to vehicle only treatment; M63 (glucose); 24 h
Protocol: . Viable cells reduce the blue resazurin dye to the pink, fluorescent resorufin form. Following incubation fluorescence was quantified by excitation wavelength of 540 nm and an emission wavelength of 590 nm using Enspire microplate reader.
P. aeruginosa strain WACC91 was maintained as a suspension in 20% (v/v) glycerol/Brain-Heart Infusion at −80° C. For use, a loop-full of ice was scraped from the stock and streaked for single colonies on LB media containing 1.8% agar and incubated overnight at 37° C. Isolated colonies were looped into 5 mL of LB broth and incubated at 37° C. with shaking until turbidity was greater than that of a 1.0 McFarland Standard (3-4 h).
The broth culture was diluted in M63 minimal media containing 0.2% (w/v) glucose as the sole carbon source to a turbidity equal to a 1.0 McFarland standard using a spectrophotometer at a wavelength of 595 nm. This culture was then diluted 1:100 in M63 (glucose) and 100 μL together with an additional 50 μL was transferred to each well of a 96 well microtitre tray and incubated overnight at 37° C., 5% CO2. D-Lactic acid, L-Lactic acid, or vehicle only (sterile H2O) was then applied by adding 50 μL of appropriate stock solutions diluted in M63 (glucose) and incubating for a further 24 hours at 37° C., 5% CO2. Culture metabolic activity was then determined using resazurin reduction as described above in Example 1.

[4] = antibiotic + 1 mM D-Lactic acid
[5] = antibiotic + 10 mM D-Lactic acid

MIC + 1 mM D-Lactic acid (S. aureus MSSA 278; [4]): 8 ng/mL
MIC + 10 mM D-Lactic acid (S. aureus MSSA 278; [5]): 8 ng/mL
MIC (S. aureus MSSA 278; antibiotic alone): 15 ng/mL (≈ 0.0182 µM)
MIC + 1 mM D-Lactic acid (S. aureus 510 (MRSA); [4]): 8 ng/mL
MIC + 10 mM D-Lactic acid (S. aureus 510 (MRSA); [5]): 8 ng/mL
MIC (S. aureus 510 (MRSA); antibiotic alone): 60 ng/mL (≈ 0.0729 µM)
Compound: CO[C@H]1/C=C/O[C@@]2(C)Oc3c(C)c(O)c4c(O)c(c(/C=N/N5CCN(C)CC5)c(O)c4c3C2=O)NC(=O)/C(C)=C\C=C\[C@H](C)[C@H](O)[C@@H](C)[C@@H](O)[C@@H](C)[C@H](OC(C)=O)[C@@H]1C [rifampicin]

Compound: colistin
Relative metabolic activity, antibiotic plus D-Lactic acid versus antibiotic only (K. pneumoniae WACC 790; plus 10 mM D-Lactic acid): enhances metabolic activity suppression
MIC + 1 mM D-Lactic acid (P. aeruginosa 001-11R; [4]): 1.0
MIC + 10 mM D-Lactic acid (P. aeruginosa 001-11R; [5]): 1.0
MIC (P. aeruginosa 001-11R; antibiotic alone): 2.0
survival of infected mice [1]: three out eight

Compound: C[C@@H](O)C(=O)[O-].[Na+] [Sodium D-Lactate]
treatment effectiveness (protection) ([1]; single oral dose of 1000 mg/kg): not protective
survival of infected mice [1]: succumbed to infection by 12 h post-challenge

Compound: O=C(O)c1cn(C2CC2)c2cc(N3CCNCC3)c(F)cc2c1=O [Ciprofloxacin]
Relative metabolic activity, antibiotic plus D-Lactic acid versus antibiotic only (K. pneumoniae WACC 790; plus 0.1 mM D-Lactic acid): enhances metabolic activity suppression

MIC D-Lactate salt (S. aureus MRSA 510; metal ion as D-Lactate salt): 4 mM
MIC (NO3)2 salt (S. aureus MRSA 510; metal ion as nitrate salt): 8 mM
MIC D-Lactate salt (S. aureus 29213; metal ion as D-Lactate salt): 4 mM
MIC (NO3)2 salt (S. aureus 29213; metal ion as nitrate salt): 8 mM
Compound: [Zn+2] [Zn^2+]

Compound: C[C@@H](O)C(=O)O [D-Lactic acid, (2R)-2-hydroxypropanoic acid]
inhibition of metabolic activity [2]: 90%
inhibition of metabolic activity [3]: > 50%
